For data set [1], the system named is SK-N-SH human neuroblastoma cells. The experiment in a line: Serum Deprivation/JC-1 Mitochondrial Membrane Potential (MMP) Assay. The format is cell-based. The conditions noted are these: for Emax: 18 h, percent maximal JC-1 ratio normalized to the peak value for 10 μM dimebolin, read-out: JC-1 max %; for EC50: JC-1 ratio after ~18 hours serum deprivation, single curve fit to mean data of n=2-3. How it is done: SK—N—SH human neuroblastoma cells obtained from American Type Culture Collection (Rockville, Md.) were maintained in the log phase of growth in Minimal Essential Media (MEM), 10% heat inactivated fetal calf serum and 100 units/mL antibiotic-antimycotic (AA). Cells were cultured and maintained in a humidified incubator at 37° C. under 5% CO2 and 95% air. Cells were trypsinized (0.25%) and subcultured every 3 days and used from 15-18 passages. All cell culture supplies were obtained from Invitrogen (Carlsbad, Calif.).
SK—N—SH cells were plated 2-3 days in advance at a concentration of 50,000 cells/well onto collagen coated black-walled 96 well plates (Becton-Dickinson, Bedford, Mass.) in a total volume of 200 μL. On day of experimental treatment, the media containing serum was aspirated from each well and rinsed once with MEM/1% AA without serum. The cells then were incubated overnight in 100 μL of MEM/1% AA (no serum) with and without dimebolin or novel chemical entities overnight for ˜18 hours. The following day, JC-1 dye (5,5′,6,6′-tetrachloro-1,1′,3,3′-tetraethylbenzimidazolcarbocyanide) was diluted 1:10 into MEM media according to the JC-1 Mitochondrial Membrane Potential Assay Kit: (Cayman Chemical Company, Ann Arbor, Mich.) and then 10 μL of the JC-1 dye solution was added to each well. The plates were centrifuged for 5 minutes at 400×g at room temperature followed by 40 minute incubation at 37° C. The plates were washed twice with 200 μL of provided Assay Buffer followed an addition of 100 μL of Assay Buffer to each well. The plates were read with an excitation and emission of 560 nm and 595 nM for red fluorescence and with an excitation and emission of […] and 535 nM for green fluorescence to determine the final JC-1 value taking the red to green fluorescence ratio. This assay is based on change in mitochondrial membrane potential (MMP) using this lipophilic cationic dye, JC-1, by monitoring the changes in the ratio of red to green fluorescence as the MMP depolarizes. This change in MMP reflects the health of the cell with healthy, viable cells have a high JC-1 ratio and high MMP whereas apoptotic, unhealthy cells have a low JC-1 ratio or low MMP.
For the ability of compounds to reverse the stress due to serum deprivation and increase the JC-1 ratio, the percent maximal intensity in JC-1 ratio was normalized to that induced by the peak value for 10 μM dimebolin and plotted against the compound concentration to calculate EC50 values and to control for plate-to-plate variability. Concentration-response data were analyzed using GraphPad Prism (San Diego, Calif.); the EC50 values were derived from a single curve fit to the mean data of n=2-3, in duplicates.
All compounds were dissolved in dimethyl sulfoxide at 10 mM stock solutions and tested at a concentration that the dimethyl sulfoxide levels never exceeded 1%.

Data set [2] concerns primary rat cortical neurons. Conditions: comparable to that evoked by BDNF; cited from earlier work.
Data set [3] concerns patients with mild-to-moderate Alzheimer's disease. Conditions: cited from earlier work.
The test system of data set [4] is primary postnatal (P0) cortical cells. The experiment in a line: Neurite Outgrowth Assay (Aβ1-42 neuroprotection, high content microscopy). The data set is classed as cell-based, rat. Conditions: n = 3; for % Attenuation Effect of 5 μM Aβ 1-42: 5 μM Aβ1-42; for Emax: Rattus norvegicus, maximum response relative to 300 nM dimebolin, at the noted concentration, read-out: Maximum Effect (of % 300 nM Dimebolin) at Concentration; for Concentration (nM) at which the Maximum Effect was seen: test compound concentration of the maximum response. The method, then:
In addition to PC12 cells, other cellular model systems may also be used. Rat cortical cells can be cultured and prepared for high content microscopy analysis as previously described (Hu, M.; Schurdak, M. E.; et al. High content screen microscopy analysis of Aβ1-42-induced neurite outgrowth reduction in rat primary cortical neurons: Neuroprotective effects of α7 neuronal nicotinic acetylcholine receptor ligands. Brain Res. 2007, 1151, 227-235.). Briefly, cortical cell cultures are plated at density of 5×10^5 cells/mL onto poly-D-lysine coated 96-well plates and maintained in a cell incubator at 37° C. with 5% CO2. Experiments are performed using 6-7 day-old cortical cell cultures by treating with test compounds. In some experiments, the effect of test compounds on reversing Aβ toxicity can also be measured (Hu, M.; Schurdak, M. E.; et al. High content screen microscopy analysis of Aβ1-42-induced neurite outgrowth reduction in rat primary cortical neurons: Neuroprotective effects of α7 neuronal nicotinic acetylcholine receptor ligands. Brain Res. 2007, 1151, 227-235.). For assessment of neuroprotective effects, cells are first pretreated with test compounds for about 5 hours. Medium is then replaced with the medium containing freshly prepared about 5 μM Aβ1-42 peptide in the absence or presence of the test compounds for 3 days. The untreated group contains the same percentage of vehicle (DMSO) as in the treatment groups. Cells are fixed with approximately 4% paraformaldehyde containing 0.5% Hoechst 33342 for about 15 minutes, followed by three washes using PBS (pH 7.4) and blocked with 10% donkey serum in PBS for 1 hour at room temperature. The cells are then incubated overnight at about 4° C. with mouse anti-tubulin monoclonal antibody (1:100) for staining neurons and rabbit anti-GFAP (1:1000) for staining glia. In the next day, cells are incubated with FITC-labeled anti-mouse and TRITC-labeled anti-rabbit antibodies (1:1000) for about 1 hour at room temperature. After fixing and staining the cells, nuclei (360/400 nm excitation and 465/300 nm emission filters), neuron (475/350 nm excitation and 535/400 nm emission filters) and glial cell (535 nm excitation and 610 nm emission filters) images are collected using the ImageExpress Micro automatic fluorescent microscopy system (Molecular Devices, Sunnyvale, Calif.) employing a Nikon 10x Plan Fluor objective and Cool Snap HQ CCD camera. The Neurite Outgrowth module in the MetaMorph Imaging software can be used to automatically count total cell number, number of neuron cells, and the extent of neurite outgrowth.
The neurite outgrowth observed for untreated cells is set to 100% response. Treatment of cells with compounds prior to and concomitantly with Aβ1-42 gave a neuroprotective effect with neurite outgrowth maintained or enhanced relative to untreated cells.

The values that follow come from patent publication US8809532B2, “Aza-ring fused indole and indoline derivatives” (AbbVie Inc., priority 2009, dated 2014).

For the compound `CN1CCc2[nH]c3c(C#Cc4cccnc4)cccc3c2C1` [Example 4, 2-methyl-6-(pyridin-3-ylethynyl)-2,3,4,5-tetrahydro-1H-pyrido[4,3-b]indole], in data set [1], the Emax turned out to be 199% and the EC50 came out at 8.93 µM.

In the case of `CN1CCc2[nH]c3c(C#Cc4ccncc4)cccc3c2C1` [Example 5, 2-methyl-6-(pyridin-4-ylethynyl)-2,3,4,5-tetrahydro-1H-pyrido[4,3-b]indole], in data set [1], the Emax stood at 103% and the EC50 worked out at 4.32 µM.

As for `Cc1ccc(/C=C/c2cccc3c4c([nH]c23)CCNC4)cn1` [Example 6, 6-[(E)-2-(6-methylpyridin-3-yl)vinyl]-2,3,4,5-tetrahydro-1H-pyrido[4,3-b]indole], in data set [1], the Emax came to 132% and the EC50 was determined as 4.13 µM.

As for `CCOC(=O)N1CCc2[nH]c3c(/C=C/c4ccc(C)nc4)cccc3c2C1` [Example 10, ethyl 6-[(E)-2-(6-methylpyridin-3-yl)vinyl]-1,3,4,5-tetrahydro-2H-pyrido[4,3-b]indole-2-carboxylate], in data set [1], the Emax was 146% and the EC50 worked out at 3.24 µM.

Regarding `CC(=O)N1CCc2[nH]c3c(/C=C/c4ccc(C)nc4)cccc3c2C1` [Example 8, 2-acetyl-6-[(E)-2-(6-methylpyridin-3-yl)vinyl]-2,3,4,5-tetrahydro-1H-pyrido[4,3-b]indole], in data set [1], the Emax amounted to 155% and the EC50 amounted to 2.98 µM.

`Cc1ccc(/C=C/c2cccc3c2N[C@@H]2CCN(C)C[C@H]32)cn1` (relative stereo) [Example 9, (cis)-2-methyl-6-[(E)-2-(6-methylpyridin-3-yl)vinyl]-2,3,4,4a,5,9b-hexahydro-1H-pyrido[4,3-b]indole]: in data set [1], the Emax is 161% and the EC50 stood at 7.53 µM.

On to `Cc1ccc2c(c1)c1c(n2CCc2ccc(C)nc2)CCN(C)C1` [dimebolin, 2,3,4,5-tetrahydro-2,8-dimethyl-5-[2-(6-methyl-3-pyridinyl)ethyl]-1H-pyrido[4,3-b]indole], for which, in data set [2], the neurite outgrowth entry is reported as “increase neurite outgrowth”. For the same compound, the “clinical course of disease, ADAS-Cog over baseline” value in data set [3] (20 mg three times a day (60 mg/day)) is listed as “significant improvement”. Further, the “most frequent adverse event” value in data set [3] (reported clinical studies) is reported as “dry mouth”.

In the case of `Cc1ccc(CCc2cccc3c4c([nH]c23)CCN(C)C4)cn1` [Example 3, 2-methyl-6-[2-(6-methylpyridin-3-yl)ethyl]-2,3,4,5-tetrahydro-1H-pyrido[4,3-b]indole], in data set [1], the Emax is 115% and the EC50 was 7.64 µM.

On to `Cc1ccc(C#Cc2cccc3c4c([nH]c23)CCN(C)C4)cn1` [Example 2, 2-methyl-6-[(6-methylpyridin-3-yl)ethynyl]-2,3,4,5-tetrahydro-1H-pyrido[4,3-b]indole], for which, in data set [1], the Emax is 176% and the EC50 amounted to 10.8 µM. Further, in data set [4], the “% Attenuation Effect of 5 μM Aβ 1-42” value was 57 (n = 3) %, the Emax came out at 129% and the “Concentration (nM) at which the Maximum Effect was seen” value is 300 nM.

Consider `Cc1ccc(/C=C/c2cccc3c4c([nH]c23)CCN(C)C4)cn1` [Example 1, 2-methyl-6-[(E)-2-(6-methylpyridin-3-yl)vinyl]-2,3,4,5-tetrahydro-1H-pyrido[4,3-b]indole], for which, in data set [1], the Emax came out at 126% and the EC50 was 4.37 µM. Besides, in data set [4], the “% Attenuation Effect of 5 μM Aβ 1-42” value is 39 (n = 3) %, the Emax is 111% and the “Concentration (nM) at which the Maximum Effect was seen” value is recorded as 30 nM.

Turning to `CCNC(=O)N1CCc2[nH]c3c(/C=C/c4ccc(C)nc4)cccc3c2C1` [Example 11, N-ethyl-6-[(E)-2-(6-methylpyridin-3-yl)vinyl]-1,3,4,5-tetrahydro-2H-pyrido[4,3-b]indole-2-carboxamide], in data set [1], the Emax worked out at 186% and the EC50 turned out to be 5.1 µM.

On to `Cc1ccc(CCc2cccc3c4c([nH]c23)CCNC4)cn1` [Example 7, 6-[2-(6-methylpyridin-3-yl)ethyl]-2,3,4,5-tetrahydro-1H-pyrido[4,3-b]indole], for which, in data set [1], the Emax came to 88% and the EC50 is 4.72 µM.
